Patent US12492173B2, “Herbicidal substituted N-tetrazolyl aryl carboxamides” (Bayer Aktiengesellschaft, priority 2019, dated 2025)

Assays:
Type in all cases: in vivo
Setaria viridis [1] = assay: Pre-emergence herbicidal action, SETVI; set-up: key to Herbicidal action against SETVI: % activity: 100 = plants have died, 0 = like control plants
Description: (§1) 1. Pre-Emergence Herbicidal Action Against Harmful Plants Seeds of monocotyledonous and dicotyledonous weed plants and crop plants are laid out in sandy loam soil in wood-fiber pots and covered with soil. The compounds of the invention, formulated in the form of wettable powders (WP) or as emulsion concentrates (EC), are then applied to the surface of the covering soil in the form of an aqueous suspension or emulsion at a water application rate equating to 600 to 800 l/ha, with addition of 0.2% wetting agent. After the treatment, the pots are placed in a greenhouse and kept under good growth conditions for the trial plants. The damage to the test plants is scored visually after a test period of 3 weeks by comparison with untreated controls (herbicidal activity in percent (%): 100% activity=the plants have died, 0% activity=like control plants). […] The tables below illustrate, in an exemplary manner, the […] herbicidal action of the compounds according to the invention, the herbicidal activity being stated in percent. [table] In the experiments that follow, herbicidal action of numerous inventive compounds and the known compounds that are structurally closest from D1 (WO 2012/028579 A1) and D2 (WO 2018/202535 A1) were compared under the above-specified conditions by the pre-emergence and post-emergence method. The example numbers given in the tables relate to the compounds disclosed in the respective documents. In addition to the compounds disclosed in D1 and D2, the following compounds V-1 to V-14 that are encompassed by D1 or D2 but are not compounds specified therein were used in the comparative experiments: • V-1: 2-(methylsulfanyl)-3-(methylsulfinyl)-N-(1-methyl-1H-tetrazol-5-yl)-4-(trifluoromethyl)benzamide • V-2: 2-(methylsulfanyl)-3-(methylsulfonyl)-N-(1-methyl-1H-tetrazol-5-yl)-4-(trifluoromethyl)benzamide • V-3: 2,3-bis(ethylsulfanyl)-N-(1-methyl-1H-tetrazol-5-yl)-4-(trifluoromethyl)benzamide • V-4: 2-chloro-3-(ethylsulfanyl)-N-(1-methyl-1H-tetrazol-5-yl)-4-(trifluoromethyl)benzamide • V-5: 2-chloro-4-iodo-3-(methylsulfanyl)-N-(1-methyl-1H-tetrazol-5-yl)benzamide • V-6: 2-chloro-4-iodo-3-(methylsulfinyl)-N-(1-methyl-1H-tetrazol-5-yl)benzamide • V-7: 2-chloro-4-iodo-3-(methylsulfonyl)-N-(1-methyl-1H-tetrazol-5-yl)benzamide • V-8: 2-bromo-3-(methylsulfanyl)-N-(1-methyl-1H-tetrazol-5-yl)-4-(trifluoromethyl)benzamide • V-9: 2-bromo-3-(methylsulfinyl)-N-(1-methyl-1H-tetrazol-5-yl)-4-(trifluoromethyl)benzamide • V-10: 2-bromo-3-(methylsulfonyl)-N-(1-methyl-1H-tetrazol-5-yl)-4-(trifluoromethyl)benzamide • V-11: 2-bromo-3-(ethylsulfanyl)-N-(1-methyl-1H-tetrazol-5-yl)-4-(trifluoromethyl)benzamide • V-12: 2-bromo-3-(ethylsulfinyl)-N-(1-methyl-1H-tetrazol-5-yl)-4-(trifluoromethyl)benzamide • V-13: 2-bromo-3-(ethylsulfonyl)-N-(1-methyl-1-1H-tetrazol-5-yl)-4-(trifluoromethyl)benzamide • V-14: 2-cyclopropyl-3-(ethylsulfanyl)-N-(1-methyl-1H-tetrazol-5-yl)-4-(trifluoromethyl)benzamide Herbicidal Pre-Emergence Action: […]

Matricaria inodora [2] = assay: Pre-emergence herbicidal action, MATIN; conditions: dosage 320 g/ha, scored visually after 3 weeks vs untreated controls (100% = plants have died)
Outline: (§2)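 Seeds were covered with sandy loam soil, then received a pre-emergence surface spray of the WP- or EC-formulated compound. After 3 weeks under good greenhouse growth conditions, damage was scored visually in percent.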

Abutilon theophrasti [3] = assay: Post-emergence herbicidal action, ABUTH; set-up: key: % herbicidal action vs untreated; 100 = plants died, 0 = like control; conditions: post-emergence
Outline: (§3)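 Visual % damage versus untreated plants, scored about 3 weeks post-spray (100% = dead, 0% = like control). Greenhouse plants in sandy loam were treated at one-leaf stage with WP/EC formulations in water at 600 to 800 l/ha plus 0.2% wetting agent.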

Viola tricolor [4] = assay: Pre-emergence herbicidal action, VIOTR; set-up: key to Herbicidal action against VIOTR: % activity: 100 = plants have died, 0 = like control plants
Outline: as §2

Amaranthus retroflexus [5] = assay: Post-emergence herbicidal action, AMARE; set-up: key: % herbicidal action vs untreated; 100 = plants died, 0 = like control; conditions: post-emergence, dosage 80 g/ha
Outline: as §3

Setaria viridis [6] = assay: Post-emergence herbicidal action, SETVI; set-up: key: % herbicidal action vs untreated; 100 = plants died, 0 = like control; conditions: post-emergence
Outline: as §3

Pharbitis purpurea [7] = assay: Post-emergence herbicidal action, PHBPU; conditions: post-emergence, dosage 80 g/ha
Outline: as §3

Echinochloa crus-galli [8] = assay: Pre-emergence herbicidal action, ECHCG; conditions: for pest or weed control at 20 g/ha: 20 g of a.i./ha
Outline: as §2

Amaranthus retroflexus [9] = assay: Pre-emergence herbicidal action, AMARE; set-up: key to Herbicidal action against AMARE: % activity: 100 = plants have died, 0 = like control plants; conditions: for Herbicidal action against AMARE: comparative experiment
Outline: as §2

Stellaria media [10] = assay: Pre-emergence herbicidal action, STEME; conditions: dosage 320 g/ha, scored visually after 3 weeks vs untreated controls (100% = plants have died)
Outline: as §2

Abutilon theophrasti [11] = assay: Pre-emergence herbicidal action, ABUTH; set-up: key to Herbicidal action against ABUTH: % activity: 100 = plants have died, 0 = like control plants; conditions: for Herbicidal action against ABUTH: comparative experiment
Outline: as §2

Matricaria inodora [12] = assay: Post-emergence herbicidal action, MATIN; set-up: key: % herbicidal action vs untreated; 100 = plants died, 0 = like control; conditions: post-emergence, dosage 80 g/ha
Outline: as §3

Echinochloa crus-galli [13] = assay: Post-emergence herbicidal action, ECHCG; set-up: key: % herbicidal action vs untreated; 100 = plants died, 0 = like control; conditions: post-emergence, dosage 80 g/ha
Outline: as §3

Hordeum murinum = assay: Pre-emergence herbicidal action, HORMU; conditions: dosage 320 g/ha, scored visually after 3 weeks vs untreated controls (100% = plants have died)
Description: as §1

Polygonum convolvulus [14] = assay: Pre-emergence herbicidal action, POLCO; conditions: for Herbicidal action against POLCO: comparative experiment, 20 g of a.i./ha
Description: as §1

Pharbitis purpurea [15] = assay: Pre-emergence herbicidal action, PHBPU; conditions: comparative experiment, 20 g of a.i./ha
Description: as §1

Cyperus esculentus = assay: Pre-emergence herbicidal action, CYPES; set-up: key: % activity: 100 = plants have died, 0 = like control plants; conditions: comparative experiment
Description: as §1

Polygonum convolvulus [16] = assay: Post-emergence herbicidal action, POLCO; conditions: comparative experiment, post-emergence, 5 g of a.i./ha
Procedure: (§4) [table] 2. Post-Emergence Herbicidal Action Against Harmful Plants Seeds of monocotyledonous and dicotyledonous weed and crop plants are laid out in sandy loam soil in wood-fiber pots, covered with soil and cultivated in a greenhouse under good growth conditions. 2 to 3 weeks after sowing, the test plants are treated at the one-leaf stage. The compounds of the invention, formulated in the form of wettable powders (WP) or as emulsion concentrates (EC), are then sprayed onto the green parts of the plants in the form of an aqueous suspension or emulsion at a water application rate equating to 600 to 800 l/ha, with addition of 0.2% wetting agent. After the test plants have been left to stand in the greenhouse under optimal growth conditions for about 3 weeks, the action of the preparations is assessed visually in comparison to untreated controls (herbicidal action in percent (%): 100% activity=the plants have died, 0% activity=like control plants). […] The tables below illustrate, in an exemplary manner, the post-emergence herbicidal action of the compounds according to the invention, the herbicidal activity being stated in percent. In the experiments that follow, herbicidal action of numerous inventive compounds and the known compounds that are structurally closest from D1 (WO 2012/028579 A1) and D2 (WO 2018/202535 A1) were compared under the above-specified conditions by the pre-emergence and post-emergence method. The example numbers given in the tables relate to the compounds disclosed in the respective documents. In addition to the compounds disclosed in D1 and D2, the following compounds V-1 to V-14 that are encompassed by D1 or D2 but are not compounds specified therein were used in the comparative experiments: • V-1: 2-(methylsulfanyl)-3-(methylsulfinyl)-N-(1-methyl-1H-tetrazol-5-yl)-4-(trifluoromethyl)benzamide • V-2: 2-(methylsulfanyl)-3-(methylsulfonyl)-N-(1-methyl-1H-tetrazol-5-yl)-4-(trifluoromethyl)benzamide • V-3: 2,3-bis(ethylsulfanyl)-N-(1-methyl-1H-tetrazol-5-yl)-4-(trifluoromethyl)benzamide • V-4: 2-chloro-3-(ethylsulfanyl)-N-(1-methyl-1H-tetrazol-5-yl)-4-(trifluoromethyl)benzamide • V-5: 2-chloro-4-iodo-3-(methylsulfanyl)-N-(1-methyl-1H-tetrazol-5-yl)benzamide • V-6: 2-chloro-4-iodo-3-(methylsulfinyl)-N-(1-methyl-1H-tetrazol-5-yl)benzamide • V-7: 2-chloro-4-iodo-3-(methylsulfonyl)-N-(1-methyl-1H-tetrazol-5-yl)benzamide • V-8: 2-bromo-3-(methylsulfanyl)-N-(1-methyl-1H-tetrazol-5-yl)-4-(trifluoromethyl)benzamide • V-9: 2-bromo-3-(methylsulfinyl)-N-(1-methyl-1H-tetrazol-5-yl)-4-(trifluoromethyl)benzamide • V-10: 2-bromo-3-(methylsulfonyl)-N-(1-methyl-1H-tetrazol-5-yl)-4-(trifluoromethyl)benzamide • V-11: 2-bromo-3-(ethylsulfanyl)-N-(1-methyl-1H-tetrazol-5-yl)-4-(trifluoromethyl)benzamide • V-12: 2-bromo-3-(ethylsulfinyl)-N-(1-methyl-1H-tetrazol-5-yl)-4-(trifluoromethyl)benzamide • V-13: 2-bromo-3-(ethylsulfonyl)-N-(1-methyl-1-1H-tetrazol-5-yl)-4-(trifluoromethyl)benzamide • V-14: 2-cyclopropyl-3-(ethylsulfanyl)-N-(1-methyl-1H-tetrazol-5-yl)-4-(trifluoromethyl)benzamide Herbicidal Pre-Emergence Action: […]

Veronica persica [17] = assay: Pre-emergence herbicidal action, VERPE; set-up: key to Herbicidal action against VERPE: % activity: 100 = plants have died, 0 = like control plants; conditions: comparative experiment, 80 g of a.i./ha
Outline: as §2

Viola tricolor [18] = assay: Post-emergence herbicidal action, VIOTR; set-up: key: % herbicidal action vs untreated; 100 = plants died, 0 = like control; conditions: comparative experiment, post-emergence, 20 g of a.i./ha
Outline: as §3

Stellaria media [19] = assay: Post-emergence herbicidal action, STEME; set-up: key: % herbicidal action vs untreated; 100 = plants died, 0 = like control; conditions: comparative experiment, post-emergence, 20 g of a.i./ha
Outline: as §3

Alopecurus myosuroides = assay: Post-emergence herbicidal action, ALOMY; set-up: key: % herbicidal action vs untreated; 100 = plants died, 0 = like control; conditions: comparative experiment, post-emergence, 20 g of a.i./ha
Procedure: as §4

Veronica persica [20] = assay: Post-emergence herbicidal action, VERPE; set-up: key: % herbicidal action vs untreated; 100 = plants died, 0 = like control; conditions: comparative experiment, post-emergence, 20 g of a.i./ha
Outline: as §3

Avena fatua = assay: Post-emergence herbicidal action, AVEFA; set-up: key: % herbicidal action vs untreated; 100 = plants died, 0 = like control; conditions: comparative experiment, post-emergence, 20 g of a.i./ha
Procedure: as §4

[21] = dosage 320 g/ha, scored visually after 3 weeks vs untreated controls (100% = plants have died)
[22] = Echinochloa crus-galli, 504 h, comparative experiment, read-out: Herbicidal action against ECHCG
[23] = comparative experiment, 80 g of a.i./ha
[24] = comparative experiment, 20 g of a.i./ha

Structure (SMILES): CCn1nnnc1NC(=O)c1ccc(I)c(CSC)c1Cl [Example 2-362]
- herbicidal activity SETVI (Setaria viridis [1]; [21]): 100%
- herbicidal activity MATIN (Matricaria inodora [2]): 100%
- Herbicidal action against ABUTH (Abutilon theophrasti [3]; dosage 80 g/ha): 90
- herbicidal activity VIOTR (Viola tricolor [4]; [21]): 100%
- Herbicidal action against AMARE (Amaranthus retroflexus [5]): 100
- Herbicidal action against SETVI (Setaria viridis [6]; dosage 80 g/ha): 90
- Herbicidal action against PHBPU (Pharbitis purpurea [7]): 90
- herbicidal activity ECHCG (Echinochloa crus-galli [8]; [21]): 100%
- herbicidal activity AMARE (Amaranthus retroflexus [9]; [21]): 100%
- herbicidal activity STEME (Stellaria media [10]): 100%
- herbicidal activity ABUTH (Abutilon theophrasti [11]; [21]): 100%
- Herbicidal action against MATIN (Matricaria inodora [12]): 100
- Herbicidal action against ECHCG (Echinochloa crus-galli [13]): 100
- herbicidal activity HORMU (Hordeum murinum): 90%
- herbicidal activity POLCO (Polygonum convolvulus [14]; [21]): 100%

Structure (SMILES): CSc1c(C(=O)Nc2nnnn2C)ccc(C(F)(F)F)c1[S+](C)[O-] (stereo not shown) [Example V-1, 2-(methylsulfanyl)-3-(methylsulfinyl)-N-(1-methyl-1H-tetrazol-5-yl)-4-(trifluoromethyl)benzamide, reference compound]
- Herbicidal action against PHBPU (Pharbitis purpurea [15]): 0
- pest or weed control at 20 g/ha (Echinochloa crus-galli [8]; [22]): 50%
- Herbicidal action against AMARE (Amaranthus retroflexus [9]; 20 g of a.i./ha): 60
- Herbicidal action against ABUTH (Abutilon theophrasti [11]; 20 g of a.i./ha): 0
- Herbicidal action against CYPES (Cyperus esculentus; 20 g of a.i./ha): 50
- Herbicidal action against POLCO (Polygonum convolvulus [14]): 0

Structure (SMILES): CSc1c(C(=O)Nc2nnnn2C)ccc(C(F)(F)F)c1S(C)(=O)=O [Example V-2, 2-(methylsulfanyl)-3-(methylsulfonyl)-N-(1-methyl-1H-tetrazol-5-yl)-4-(trifluoromethyl)benzamide, reference compound]
- Herbicidal action against POLCO (Polygonum convolvulus [16]): 0
- pest or weed control at 20 g/ha (Echinochloa crus-galli [8]; [22]): 50%
- Herbicidal action against CYPES (Cyperus esculentus; 20 g of a.i./ha): 0
- Herbicidal action against POLCO (Polygonum convolvulus [14]): 0

Structure (SMILES): CSc1c(C(F)(F)F)ccc(C(=O)Nc2nnnn2C)c1Br [Example V-8, 2-bromo-3-(methylsulfanyl)-N-(1-methyl-1H-tetrazol-5-yl)-4-(trifluoromethyl)benzamide, reference compound]
- Herbicidal action against CYPES (Cyperus esculentus; 20 g of a.i./ha): 0

Structure (SMILES): CCSc1c(C(F)(F)F)ccc(C(=O)Nc2nnnn2C)c1Br [Example V-11, 2-bromo-3-(ethylsulfanyl)-N-(1-methyl-1H-tetrazol-5-yl)-4-(trifluoromethyl)benzamide, reference compound]
- Herbicidal action against SETVI (Setaria viridis [1]; [23]): 0
- Herbicidal action against VERPE (Veronica persica [17]): 10
- Herbicidal action against ABUTH (Abutilon theophrasti [3]; [24]): 0
- Herbicidal action against VIOTR (Viola tricolor [4]; [23]): 80
- Herbicidal action against SETVI (Setaria viridis [6]; [24]): 0
- pest or weed control at 80 g/ha (Echinochloa crus-galli [8]; Echinochloa crus-galli, 504 h, comparative experiment, 80 g of a.i./ha, read-out: Herbicidal action against ECHCG): 0%
- Herbicidal action against AMARE (Amaranthus retroflexus [9]; 80 g of a.i./ha): 0
- Herbicidal action against VIOTR (Viola tricolor [18]): 20
- Herbicidal action against STEME (Stellaria media [19]): 0
- Herbicidal action against ABUTH (Abutilon theophrasti [11]; 80 g of a.i./ha): 0
- Herbicidal action against CYPES (Cyperus esculentus; 80 g of a.i./ha): 0
- Herbicidal action against ALOMY (Alopecurus myosuroides): 0
- Herbicidal action against VERPE (Veronica persica [20]): 40
- Herbicidal action against AVEFA (Avena fatua): 0
